Measured values taken from the kinase profiling compilation of Christmann-Franck et al. (2016).

Assays:
Test in all cases: KINOMEscan competition binding
Details in all cases: compound 10.0 µM
[1] = biological target: PIM3 (human) (UniProt Q86V86)
[2] = biological target: PRKCD (human) (UniProt Q05655)
[3] = biological target: CDK17 (human) (UniProt Q00537)
[4] = biological target: EPHA6 (human) (UniProt Q9UF33)
[5] = biological target: RPS6KA5 KD2 (human) (UniProt O75582)
[6] = biological target: DMPK (human) (UniProt Q09013)
[7] = biological target: EPHA7 (human) (UniProt Q15375)
[8] = biological target: PRKG1 (human) (UniProt Q13976)
[9] = biological target: RPS6KA2 KD1 (human) (UniProt Q15349)
[10] = biological target: PIM1 (human) (UniProt P11309)
[11] = biological target: AKT3 (human) (UniProt Q9Y243)
[12] = biological target: NUAK2 (human) (UniProt Q9H093)
[13] = biological target: STK35 (human) (UniProt Q8TDR2)
[14] = biological target: TNK1 (human) (UniProt Q13470)
[15] = biological target: FER (human) (UniProt P16591)
[16] = biological target: MST4 (human) (UniProt Q9P289)
[17] = biological target: ACVR2A (human) (UniProt P27037)
[18] = biological target: PAK1 (human) (UniProt Q13153)
[19] = biological target: TAOK1 (human) (UniProt Q7L7X3)
[20] = biological target: ZAP70 (human) (UniProt P43403)
[21] = biological target: TNNI3K (human) (UniProt Q59H18)
[22] = test system: FLT3 (human), P36888 [N841I]
[23] = biological target: TYRO3 (human) (UniProt Q06418)
[24] = biological target: MAPK10 (human) (UniProt P53779)
[25] = biological target: FGFR2 (human) (UniProt P21802)
[26] = biological target: MAPK4 (human) (UniProt P31152)
[27] = test system: EIF2AK4 KD2 (human), Q9P2K8 [S808G]
[28] = biological target: CHEK2 (human) (UniProt O96017)
[29] = biological target: CSK (human) (UniProt P41240)
[30] = biological target: NEK6 (human) (UniProt Q9HC98)
[31] = biological target: RIPK1 (human) (UniProt Q13546)
[32] = biological target: JAK1 JH1 catalytic (human) (UniProt P23458)
[33] = biological target: TEK (human) (UniProt Q02763)
[34] = biological target: TNK2 (human) (UniProt Q07912)
[35] = biological target: BMPR1A (human) (UniProt P36894)
[36] = biological target: CSNK2A1 (human) (UniProt P68400)
[37] = biological target: JAK1 JH2 pseudokinase (human) (UniProt P23458)
[38] = biological target: CDKL2 (human) (UniProt Q92772)
[39] = biological target: MST1R (human) (UniProt Q04912)
[40] = biological target: STK3 (human) (UniProt Q13188)

Sequence of TAOK1 (human) (Q7L7X3 whole entry, looked up): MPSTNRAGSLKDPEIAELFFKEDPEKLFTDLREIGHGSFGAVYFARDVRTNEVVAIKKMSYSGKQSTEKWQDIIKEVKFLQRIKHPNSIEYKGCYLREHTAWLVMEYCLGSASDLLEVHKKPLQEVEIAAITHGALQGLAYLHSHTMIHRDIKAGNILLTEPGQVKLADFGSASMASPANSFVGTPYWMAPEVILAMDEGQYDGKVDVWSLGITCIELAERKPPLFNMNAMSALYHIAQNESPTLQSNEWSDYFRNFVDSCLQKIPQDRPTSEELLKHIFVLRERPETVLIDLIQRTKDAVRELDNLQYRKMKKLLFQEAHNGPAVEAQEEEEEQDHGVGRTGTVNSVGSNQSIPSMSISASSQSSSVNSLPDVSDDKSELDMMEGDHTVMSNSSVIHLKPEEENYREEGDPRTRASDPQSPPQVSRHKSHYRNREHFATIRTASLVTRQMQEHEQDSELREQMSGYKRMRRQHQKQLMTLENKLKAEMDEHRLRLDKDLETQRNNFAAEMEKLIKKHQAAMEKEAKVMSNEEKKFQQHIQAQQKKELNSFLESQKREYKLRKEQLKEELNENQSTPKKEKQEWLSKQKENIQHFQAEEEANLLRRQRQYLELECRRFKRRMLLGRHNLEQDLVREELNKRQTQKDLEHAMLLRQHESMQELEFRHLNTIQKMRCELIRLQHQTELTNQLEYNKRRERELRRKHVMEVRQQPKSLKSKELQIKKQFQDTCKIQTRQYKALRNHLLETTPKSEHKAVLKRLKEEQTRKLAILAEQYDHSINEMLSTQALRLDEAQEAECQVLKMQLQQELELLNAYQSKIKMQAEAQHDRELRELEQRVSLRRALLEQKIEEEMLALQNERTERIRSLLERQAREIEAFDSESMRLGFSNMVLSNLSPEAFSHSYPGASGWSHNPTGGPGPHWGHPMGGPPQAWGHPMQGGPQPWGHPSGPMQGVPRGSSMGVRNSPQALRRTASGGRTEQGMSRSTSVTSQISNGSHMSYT
Sequence of CDK17 (human) (Q00537 whole entry, looked up): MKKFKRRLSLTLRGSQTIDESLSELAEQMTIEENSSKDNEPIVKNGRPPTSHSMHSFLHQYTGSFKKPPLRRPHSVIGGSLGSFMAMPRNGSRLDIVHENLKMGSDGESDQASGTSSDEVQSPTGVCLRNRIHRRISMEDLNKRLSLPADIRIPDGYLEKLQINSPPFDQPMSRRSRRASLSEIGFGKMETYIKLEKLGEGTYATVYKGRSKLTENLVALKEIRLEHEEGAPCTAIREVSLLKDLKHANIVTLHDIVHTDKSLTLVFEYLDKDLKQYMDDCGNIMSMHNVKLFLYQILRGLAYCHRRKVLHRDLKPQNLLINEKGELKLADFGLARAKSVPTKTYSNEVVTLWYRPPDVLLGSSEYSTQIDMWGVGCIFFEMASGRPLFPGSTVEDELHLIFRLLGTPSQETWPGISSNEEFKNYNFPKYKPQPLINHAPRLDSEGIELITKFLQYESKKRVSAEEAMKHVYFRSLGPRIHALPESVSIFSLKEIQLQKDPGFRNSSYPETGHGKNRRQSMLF
Sequence of TNK1 (human) (Q13470 whole entry, looked up): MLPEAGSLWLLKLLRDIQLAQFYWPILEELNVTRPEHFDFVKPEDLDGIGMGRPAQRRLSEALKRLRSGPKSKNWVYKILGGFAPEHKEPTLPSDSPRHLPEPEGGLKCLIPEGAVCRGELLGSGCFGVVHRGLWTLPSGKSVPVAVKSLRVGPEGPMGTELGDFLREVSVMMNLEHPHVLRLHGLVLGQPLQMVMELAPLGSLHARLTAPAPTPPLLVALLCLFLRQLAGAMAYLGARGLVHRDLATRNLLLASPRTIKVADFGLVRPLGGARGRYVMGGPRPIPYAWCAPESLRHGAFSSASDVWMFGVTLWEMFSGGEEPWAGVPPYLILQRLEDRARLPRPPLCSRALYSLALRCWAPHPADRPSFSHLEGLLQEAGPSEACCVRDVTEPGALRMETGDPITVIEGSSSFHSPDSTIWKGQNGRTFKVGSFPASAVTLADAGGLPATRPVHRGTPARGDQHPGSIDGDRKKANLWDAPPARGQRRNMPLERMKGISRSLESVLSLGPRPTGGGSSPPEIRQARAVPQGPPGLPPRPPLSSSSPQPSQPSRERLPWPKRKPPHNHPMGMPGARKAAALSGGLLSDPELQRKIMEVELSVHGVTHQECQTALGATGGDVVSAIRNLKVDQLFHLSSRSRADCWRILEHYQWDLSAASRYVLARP
Sequence of MST1R (human) (Q04912 whole entry, looked up): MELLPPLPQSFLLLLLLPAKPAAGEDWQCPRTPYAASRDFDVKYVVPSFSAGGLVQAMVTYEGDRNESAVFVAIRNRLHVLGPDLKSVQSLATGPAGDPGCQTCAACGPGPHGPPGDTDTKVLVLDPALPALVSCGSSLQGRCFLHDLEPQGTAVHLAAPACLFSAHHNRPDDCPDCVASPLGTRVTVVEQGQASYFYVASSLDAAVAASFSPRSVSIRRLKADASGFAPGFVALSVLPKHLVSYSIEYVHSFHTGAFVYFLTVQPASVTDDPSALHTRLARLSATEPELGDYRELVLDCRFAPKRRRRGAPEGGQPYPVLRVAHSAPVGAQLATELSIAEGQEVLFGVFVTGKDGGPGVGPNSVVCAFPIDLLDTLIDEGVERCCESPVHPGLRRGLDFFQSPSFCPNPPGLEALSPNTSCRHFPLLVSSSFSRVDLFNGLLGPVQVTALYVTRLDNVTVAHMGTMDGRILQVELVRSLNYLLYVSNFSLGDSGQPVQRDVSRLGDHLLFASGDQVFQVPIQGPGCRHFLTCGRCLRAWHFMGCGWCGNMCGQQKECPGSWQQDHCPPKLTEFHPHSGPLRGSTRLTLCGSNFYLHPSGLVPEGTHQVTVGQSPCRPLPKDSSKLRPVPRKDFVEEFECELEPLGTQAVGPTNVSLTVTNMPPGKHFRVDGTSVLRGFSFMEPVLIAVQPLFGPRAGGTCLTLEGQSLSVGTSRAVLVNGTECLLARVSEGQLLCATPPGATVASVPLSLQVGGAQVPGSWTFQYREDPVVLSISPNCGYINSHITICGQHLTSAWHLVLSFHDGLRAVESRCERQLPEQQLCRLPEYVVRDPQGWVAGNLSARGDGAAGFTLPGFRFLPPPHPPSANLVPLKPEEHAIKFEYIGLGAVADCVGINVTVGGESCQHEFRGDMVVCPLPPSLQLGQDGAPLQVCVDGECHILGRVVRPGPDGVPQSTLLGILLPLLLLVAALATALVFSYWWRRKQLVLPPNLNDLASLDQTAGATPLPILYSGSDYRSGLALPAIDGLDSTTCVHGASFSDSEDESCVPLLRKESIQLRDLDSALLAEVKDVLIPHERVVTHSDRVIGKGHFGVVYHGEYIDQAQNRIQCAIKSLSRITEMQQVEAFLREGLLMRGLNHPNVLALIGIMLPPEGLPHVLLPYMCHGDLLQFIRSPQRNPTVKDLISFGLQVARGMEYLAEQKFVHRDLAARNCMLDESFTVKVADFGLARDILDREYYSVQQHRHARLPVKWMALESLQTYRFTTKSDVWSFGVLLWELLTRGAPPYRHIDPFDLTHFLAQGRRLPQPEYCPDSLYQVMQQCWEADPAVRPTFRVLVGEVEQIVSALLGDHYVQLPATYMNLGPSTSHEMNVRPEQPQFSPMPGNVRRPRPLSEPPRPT
Sequence of FER (human) (P16591 whole entry, looked up): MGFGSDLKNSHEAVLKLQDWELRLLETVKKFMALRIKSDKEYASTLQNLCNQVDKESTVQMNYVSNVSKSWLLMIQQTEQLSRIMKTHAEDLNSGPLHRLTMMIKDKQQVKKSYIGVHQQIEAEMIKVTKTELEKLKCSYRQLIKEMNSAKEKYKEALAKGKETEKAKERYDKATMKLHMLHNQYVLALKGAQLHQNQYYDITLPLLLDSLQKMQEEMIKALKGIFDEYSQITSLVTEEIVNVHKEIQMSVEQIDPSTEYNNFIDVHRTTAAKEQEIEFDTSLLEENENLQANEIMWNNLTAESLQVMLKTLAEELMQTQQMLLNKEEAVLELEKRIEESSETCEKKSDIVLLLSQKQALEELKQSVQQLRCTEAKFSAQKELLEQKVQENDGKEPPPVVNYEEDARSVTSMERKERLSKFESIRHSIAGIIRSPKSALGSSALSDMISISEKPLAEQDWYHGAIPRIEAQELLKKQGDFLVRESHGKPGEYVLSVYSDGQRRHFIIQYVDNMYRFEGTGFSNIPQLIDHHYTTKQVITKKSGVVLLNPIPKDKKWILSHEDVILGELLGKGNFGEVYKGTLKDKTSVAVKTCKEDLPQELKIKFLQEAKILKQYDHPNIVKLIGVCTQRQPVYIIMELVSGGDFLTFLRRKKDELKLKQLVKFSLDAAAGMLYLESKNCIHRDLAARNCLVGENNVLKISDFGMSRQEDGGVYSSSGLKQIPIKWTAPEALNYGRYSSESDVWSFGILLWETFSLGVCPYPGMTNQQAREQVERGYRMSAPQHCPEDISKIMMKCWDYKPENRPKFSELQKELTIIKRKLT
Sequence of ACVR2A (human) (P27037 whole entry, looked up): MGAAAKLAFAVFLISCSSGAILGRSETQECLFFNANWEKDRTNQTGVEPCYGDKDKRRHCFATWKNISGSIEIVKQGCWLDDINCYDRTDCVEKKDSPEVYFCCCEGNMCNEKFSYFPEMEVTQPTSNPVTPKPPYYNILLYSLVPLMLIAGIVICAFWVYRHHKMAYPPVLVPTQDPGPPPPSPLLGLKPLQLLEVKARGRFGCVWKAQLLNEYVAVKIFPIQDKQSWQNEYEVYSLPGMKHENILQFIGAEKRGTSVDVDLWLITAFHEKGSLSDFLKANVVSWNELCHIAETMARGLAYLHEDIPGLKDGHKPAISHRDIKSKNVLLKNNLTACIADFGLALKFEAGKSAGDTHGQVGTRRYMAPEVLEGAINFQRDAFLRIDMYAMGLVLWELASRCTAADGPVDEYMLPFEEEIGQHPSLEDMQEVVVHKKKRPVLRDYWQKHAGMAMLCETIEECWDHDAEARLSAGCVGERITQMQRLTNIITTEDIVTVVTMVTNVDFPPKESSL

Row | SMILES | kinase still bound, per cent of control [1] [%] | kinase still bound, per cent of control [2] [%] | kinase still bound, per cent of control [3] [%] | kinase still bound, per cent of control [4] [%] | kinase still bound, per cent of control [5] [%] | kinase still bound, per cent of control [6] [%] | kinase still bound, per cent of control [7] [%] | kinase still bound, per cent of control [8] [%] | kinase still bound, per cent of control [9] [%] | kinase still bound, per cent of control [10] [%] | kinase still bound, per cent of control [11] [%] | kinase still bound, per cent of control [12] [%] | kinase still bound, per cent of control [13] [%] | kinase still bound, per cent of control [14] [%] | kinase still bound, per cent of control [15] [%] | kinase still bound, per cent of control [16] [%] | kinase still bound, per cent of control [17] [%] | kinase still bound, per cent of control [18] [%] | kinase still bound, per cent of control [19] [%] | kinase still bound, per cent of control [20] [%] | also measured
1 | C=CC(=O)Nc1cc(NC(=O)c2ccc(C)c(NC(=O)c3ccno3)c2)cc(C(F)(F)F)c1 | 100 | 91 | 92 | 93 | 90 | 100 | 77 | 100 | 100 | 100 | 100 | 97 | 100 | 85 | 100 | 91 | 100 | 79 | 76 | 54 | kinase still bound, per cent of control [21]: 54%; kinase still bound, per cent of control [22]: 82%; kinase still bound, per cent of control [23]: 93%; kinase still bound, per cent of control [24]: 86%; kinase still bound, per cent of control [25]: 99%; kinase still bound, per cent of control [26]: 100%; kinase still bound, per cent of control [27]: 100%; kinase still bound, per cent of control [28]: 96%; kinase still bound, per cent of control [29]: 71%; kinase still bound, per cent of control [30]: 100%; kinase still bound, per cent of control [31]: 100%; kinase still bound, per cent of control [32]: 100%; kinase still bound, per cent of control [33]: 100%; kinase still bound, per cent of control [34]: 84%; kinase still bound, per cent of control [35]: 100%; kinase still bound, per cent of control [36]: 100%; kinase still bound, per cent of control [37]: 92%; kinase still bound, per cent of control [38]: 100%; kinase still bound, per cent of control [39]: 99%; kinase still bound, per cent of control [40]: 100%
2 | O=C1Nc2ccc(I)cc2/C1=C/c1cc(Br)c(O)c(Br)c1 | 2 | 70 | 87 | 100 | 63 | 100 | 100 | 100 | 58 | 2.8 | 100 | 75 | 100 | 100 | 100 | 100 | 100 | 100 | 54 | 84 | kinase still bound, per cent of control [21]: 76%; kinase still bound, per cent of control [22]: 12%; kinase still bound, per cent of control [23]: 88%; kinase still bound, per cent of control [24]: 60%; kinase still bound, per cent of control [25]: 59%; kinase still bound, per cent of control [26]: 100%; kinase still bound, per cent of control [27]: 78%; kinase still bound, per cent of control [28]: 12%; kinase still bound, per cent of control [29]: 92%; kinase still bound, per cent of control [30]: 96%; kinase still bound, per cent of control [31]: 85%; kinase still bound, per cent of control [32]: 100%; kinase still bound, per cent of control [33]: 100%; kinase still bound, per cent of control [34]: 74%; kinase still bound, per cent of control [35]: 8.8%; kinase still bound, per cent of control [36]: 4.2%; kinase still bound, per cent of control [37]: 0.55%; kinase still bound, per cent of control [38]: 82%; kinase still bound, per cent of control [39]: 100%; kinase still bound, per cent of control [40]: 3.3%
3 | CN(C)C/C=C/C(=O)Nc1cccc(Nc2ncc3c(n2)N(C)c2ccccc2C(=O)N3C)c1 | 100 | 100 | 80 | 91 | 80 | 32 | 100 | 100 | 50 | 66 | 100 | 2.6 | 89 | 0.4 | 100 | 31 | 57 | 91 | 0.15 | 60 | kinase still bound, per cent of control [21]: 28%; kinase still bound, per cent of control [22]: 9.2%; kinase still bound, per cent of control [23]: 100%; kinase still bound, per cent of control [24]: 80%; kinase still bound, per cent of control [25]: 13%; kinase still bound, per cent of control [26]: 100%; kinase still bound, per cent of control [27]: 62%; kinase still bound, per cent of control [28]: 94%; kinase still bound, per cent of control [29]: 82%; kinase still bound, per cent of control [30]: 73%; kinase still bound, per cent of control [31]: 28%; kinase still bound, per cent of control [32]: 2.8%; kinase still bound, per cent of control [33]: 35%; kinase still bound, per cent of control [34]: 4.4%; kinase still bound, per cent of control [35]: 0.65%; kinase still bound, per cent of control [36]: 100%; kinase still bound, per cent of control [37]: 0.25%; kinase still bound, per cent of control [38]: 92%; kinase still bound, per cent of control [39]: 93%; kinase still bound, per cent of control [40]: 0%
